Earlier results on 2 compounds are cited in patent publication US20100247649A1, “PHARMACEUTICAL FORMULATIONS COMPRISING TELMISARTAN AND HYDROCHLOROTHIAZIDE” (DR. REDDY'S LABORATORIES LTD., priority 2007, published 2010).

Structures are written as SMILES.

As for `NS(=O)(=O)c1cc2c(cc1Cl)NCNS2(=O)=O` [Hydrochlorothiazide, 6-chloro-3,4-dihydro-2H-1,2,4-benzothiadiazine-7-sulfonamide 1,1-dioxide], the “Stability in alkaline conditions” value (alkaline conditions) is “degrades”.
Turning to `CCCc1nc2c(C)cc(-c3nc4ccccc4n3C)cc2n1Cc1ccc(-c2ccccc2C(=O)O)cc1` [Telmisartan, 4′-[(1,4′-dimethyl-2′-propyl[2,6′-bi-1H-benzimidazol]-1′-yl)methyl]-[1,1′-biphenyl]-2-carboxylic acid], the “Aqueous solubility in the physiological pH range of the gastrointestinal tract” value (between pH 1 and 7) is recorded as “very poor”. Further, the “Solubility in hydrochloric acid” value (hydrochloric acid) is given as “insoluble”. The “Solubility in the pH range of 3 to 9” value (pH range of 3 to 9) is “practically insoluble”. Also, for the setting “strong acids (except hydrochloric acid)”, the “Solubility in strong acids” value is given as “sparingly soluble”. Also, for the setting “strong bases”, the “Solubility in strong bases” value was “soluble”. Besides, the Solubility in water result (water) was “practically insoluble”.
